Reference: publication PMC11211329, “Phage-encoded bismuth bicycles enable instant access to targeted bioactive peptides” (Communications Chemistry, 2024)
Where “and” joins values, the source holds several entries; their conditions need not be identical. Equal entries are not always repeated. Where two headings read alike, the source gives them in different places. Peptide text beside a SMILES is read from it.

Target: T1, streptavidin (Streptomyces avidinii, UniProt P22629)
T1 construct: purchased New England Biolabs
T1 sequence (P22629 25-183): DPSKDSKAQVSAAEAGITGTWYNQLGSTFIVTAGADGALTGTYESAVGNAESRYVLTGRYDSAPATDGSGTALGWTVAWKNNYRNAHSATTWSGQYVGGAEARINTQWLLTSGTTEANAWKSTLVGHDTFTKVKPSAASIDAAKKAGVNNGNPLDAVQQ
Assay: biochemical
Assay type: binding
Conditions: for more active than linear counterpart: ratio of KD, bicycle vs linear peptide
Protocol: SPR measurements were performed with 20 mM HEPES–KOH pH 7.4, 150 mM NaCl, 0.5 mM TCEP, 0.05% (v/v) polysorbate 20 as running buffer. For each experiment, 100–150 μg streptavidin in 10 mM sodium acetate pH 3.9 buffer was freshly immobilised on a sensor chip flow-cell using EDC/NHS chemistry at 25 °C in absence of TCEP. All binding experiments were conducted at 20 °C in single-cycle kinetics mode (Fig. 4, Supplementary Figs. 17, 18, Supplementary Data 2).
SPR experiments were performed on a Biacore 8K (Cytiva, USA) using a CM5 chip (Cytiva, 29104988, USA), onto which streptavidin (New England Biolabs, USA) was freshly immobilised using an amine coupling kit (Cytiva, USA) for each individual experiment. The instrument was operated using Biacore Insight 5 software (Cytiva, USA). The data were plotted and analysed in GraphPad Prism 10 (Dotmatics, USA) using the non-linear fit ‘one site – specific binding’ (Supplementary Equation 2). KD values of duplicate measurements are represented as the mean value ± standard deviation.
Supplementary Equation 2.
X = analyte concentration [µM]
RUmax = maximum response [RU]
KD = dissociation constant [µM]

| Compound | affinity towards streptavidin (in words) (SPR) | Response (SPR, 0.78125 μM peptide) | Response (SPR, 1.5625 μM peptide) | Response (SPR, 3.125 μM peptide) | Response (SPR, 6.25 μM peptide) | Response (SPR, 12.5 μM peptide) | Response (SPR, 25 μM peptide) | Response (SPR, 50 μM peptide) | Response (SPR, 100 μM peptide) | Kd [µM] | Response (SPR, 0.390625 μM peptide) | further results |
| --- | --- | --- | --- | --- | --- | --- | --- | --- | --- | --- | --- | --- |
| CC(C)[C@@H]1NC(=O)[C@H](CCC(N)=O)NC(=O)[C@@H]2CCCN2C(=O)[C@H](Cc2c[nH]cn2)NC(=O)[C@@H](NC(=O)[C@H](C)N)C[S][Bi]2[S]C[C@@H](C(N)=O)NC(=O)[C@H](CCC(=O)O)NC(=O)[C@H]([C@@H](C)O)NC(=O)[C@@H]3CCCN3C(=O)[C@H](CO)NC(=O)[C@H](C[S]2)NC1=O [4b] | two-digit micromolar dissociation constants | 5.1388 RU | 8.1368 RU | 20.2314 RU | 72.2878 RU | 222.296 RU | 413.089 RU | 508.05 RU | 531.655 RU | – | – | Response (SPR, 200 μM peptide): 538.328 RU |
| C[C@H](N)C(=O)N[C@@H](CS)C(=O)N1CCC[C@H]1C(=O)N[C@@H](Cc1c[nH]cn1)C(=O)N1CCC[C@H]1C(=O)N[C@@H](CCC(N)=O)C(=O)N[C@@H](CS)C(=O)N[C@@H](CCC(=O)O)C(=O)N[C@@H](C)C(=O)N[C@@H](C)C(=O)N[C@@H](C)C(=O)N[C@@H](CS)C(N)=O [compound 2] (H-ACPHPQCEAAAC-NH2) | – | – | – | – | – | – | – | – | – | 1520 | – | affinity of linear versus bicyclic peptide (in words) (SPR): two orders of magnitude lower affinity; Response (SPR, 15.625 μM peptide): 3.2958 RU; Response (SPR, 31.25 μM peptide): 3.9468 RU; Response (SPR, 62.5 μM peptide): 5.3014 RU; Response (SPR, 125 μM peptide): 8.119 RU; Response (SPR, 250 μM peptide): 13.0777 RU; Response (SPR, 500 μM peptide): 20.3557 RU; Response (SPR, 1000 μM peptide): 32.6253 RU; Response (SPR, 2000 μM peptide): 47.8172 RU; Response (SPR, 4000 μM peptide): 62.2756 RU |
| C[C@H](N)C(=O)N[C@@H](CS)C(=O)N[C@@H](Cc1c[nH]cn1)C(=O)N1CCC[C@H]1C(=O)N[C@@H](CCC(N)=O)C(=O)N[C@@H](CC(N)=O)C(=O)N[C@@H](CS)C(=O)N[C@H](C(=O)N[C@@H](CCC(=O)O)C(=O)N1CCC[C@H]1C(=O)N[C@@H](C)C(=O)N[C@@H](CS)C(N)=O)[C@@H](C)O [compound 3] (H-ACHPQNCTEPAC-NH2) | – | – | – | – | – | – | – | – | – | 927 | – | affinity of linear versus bicyclic peptide (in words) (SPR): two orders of magnitude lower affinity; Response (SPR, 11.7188 μM peptide): 4.8115 RU; Response (SPR, 23.4375 μM peptide): 6.9877 RU; Response (SPR, 46.875 μM peptide): 10.9154 RU; Response (SPR, 93.75 μM peptide): 18.7272 RU; Response (SPR, 187.5 μM peptide): 34.0455 RU; Response (SPR, 375 μM peptide): 61.2377 RU; Response (SPR, 750 μM peptide): 109.838 RU; Response (SPR, 1500 μM peptide): 163.522 RU; Response (SPR, 3000 μM peptide): 172.646 RU |
| CC(C)[C@@H]1NC(=O)[C@H](CCC(N)=O)NC(=O)[C@@H]2CCCN2C(=O)[C@H](Cc2c[nH]cn2)NC(=O)[C@@H](NC(=O)[C@H](C)N)CS[As]2SC[C@@H](C(N)=O)NC(=O)[C@H](CCC(=O)O)NC(=O)[C@H]([C@@H](C)O)NC(=O)[C@@H]3CCCN3C(=O)[C@H](CO)NC(=O)[C@H](CS2)NC1=O [4a] | micromolar affinity | 3.4046 RU and 4.4109 RU | 4.0632 RU and 5.3459 RU | 6.3333 RU and 7.9821 RU | 11.621 RU and 13.3151 RU | 22.2246 RU and 23.8712 RU | 39.0098 RU and 40.7076 RU | 57.9196 RU and 59.6228 RU | 73.3509 RU and 75.0552 RU | 42.8 ± 3.5 | 3.3313 RU and 3.9342 RU | – |
| CSCC[C@@H]1NC(=O)[C@@H]2CCCN2C(=O)[C@H](Cc2c[nH]cn2)NC(=O)[C@H](CO)NC(=O)[C@@H](NC(=O)[C@H](C)N)C[S][Bi]2[S]C[C@@H](C(N)=O)NC(=O)[C@@H]3CCCN3C(=O)[C@H](Cc3ccccc3)NC(=O)CNC(=O)[C@H](CCC(=O)O)NC(=O)[C@H](C[S]2)NC1=O [1b] | micromolar affinity | 7.9335 RU and 9.6048 RU | 11.7844 RU and 13.9912 RU | 18.5476 RU and 21.5419 RU | 29.9992 RU and 34.3112 RU | 48.2716 RU and 55.717 RU | 75.0467 RU and 86.4584 RU | 95.3416 RU and 109.542 RU | 110.889 RU and 126.3 RU | – | 6.1348 RU and 7.3042 RU | – |
| C[C@H](N)C(=O)N[C@H]1CS[As]2SC[C@@H](C(N)=O)NC(=O)[C@H](C)NC(=O)[C@@H]3CCCN3C(=O)[C@H](CCC(=O)O)NC(=O)[C@H]([C@@H](C)O)NC(=O)[C@H](CS2)NC(=O)[C@H](CC(N)=O)NC(=O)[C@H](CCC(N)=O)NC(=O)[C@@H]2CCCN2C(=O)[C@H](Cc2c[nH]cn2)NC1=O [3a] | micromolar affinity | 4.9583 RU and 6.3102 RU | 9.0442 RU and 11.2377 RU | 17.2093 RU and 20.7499 RU | 31.5997 RU and 35.2522 RU | 49.5222 RU and 52.7774 RU | 65.4485 RU and 68.0889 RU | 75.5589 RU and 77.8751 RU | – | 11.7 | 3.2004 RU and 3.5032 RU | more active than linear counterpart: approximately 80 times |
| C[C@H](N)C(=O)N[C@H]1C[S][Bi]2[S]C[C@@H](C(N)=O)NC(=O)[C@H](C)NC(=O)[C@H](C)NC(=O)[C@H](C)NC(=O)[C@H](CCC(=O)O)NC(=O)[C@H](C[S]2)NC(=O)[C@H](CCC(N)=O)NC(=O)[C@@H]2CCCN2C(=O)[C@H](Cc2c[nH]cn2)NC(=O)[C@@H]2CCCN2C1=O [2b] | micromolar affinity | 13.307 RU and 10.0327 RU | 13.7466 RU and 10.2315 RU | 15.583 RU and 11.4763 RU | 24.2151 RU and 19.0135 RU | 41.2334 RU and 33.5268 RU | 50.6436 RU and 38.7895 RU | 52.9652 RU and 37.872 RU | 63.2365 RU and 47.0629 RU | – | 13.0345 RU and 9.7931 RU | Kd (SPR, 20 °C, single-cycle kinetics, 1b, 2b, 3a, 4a n = 2 (mean ± SD), 2, 3, 3b, 4b n = 1): 7.4 µM; more active than linear counterpart: approximately 200 times |
| C[C@H](N)C(=O)N[C@H]1C[S][Bi]2[S]C[C@@H](C(N)=O)NC(=O)[C@H](C)NC(=O)[C@@H]3CCCN3C(=O)[C@H](CCC(=O)O)NC(=O)[C@H]([C@@H](C)O)NC(=O)[C@H](C[S]2)NC(=O)[C@H](CC(N)=O)NC(=O)[C@H](CCC(N)=O)NC(=O)[C@@H]2CCCN2C(=O)[C@H](Cc2c[nH]cn2)NC1=O [3b] | two-digit micromolar dissociation constants | 7.812 RU | 10.9116 RU | 21.8994 RU | 58.4112 RU | 130.364 RU | 206.319 RU | 242.538 RU | 254.246 RU | – | – | Response (SPR, 200 μM peptide): 258.218 RU |
